Results published in PMC12281475, “Mediator Kinase Inhibitor Selectivity and Activity in Colorectal Cancer” (ACS Chemical Biology, 2025).

Tested on: COLO205 cells
Experiment: Phospho-proteome profiling (CDK-motif antibody enrichment, LC-MS/MS)
Assay type: cell-based, human
Conditions: 6 H
Description: We phospho-proteome profiled COLO205 cells to identify Mediator kinase substrates following chemical inhibition of Mediator kinase activity. Given the confirmed CDK8/19 selectivity of our compounds in binding and enzymatic activity assays, we employed a pool of antibodies selective for the proline-rich motifs phosphorylated by the CDK family to enrich potential CDK8/19 substrates for LC-MS/MS analysis.
Adherent COLO205 cells were lysed with a urea buffer, lysates were reduced with DTT, alkylated with iodoacetimide and digested with trypsin-tosylphenylalanyl chloromethyl ketone. Digested peptides were immunoprecipitated using a pool of motif antibodies from Cell Signaling Technologies (US) comprising: phospho-MAPK substrate (PXS*P or S*PXR/K, #2325, RRID:AB_331820), phospho-CDKs substrate ((K/H)-S*P, #2324; RRID:AB_2244779), phospho-PLK binding motif (ST*P, #5243; RRID:AB_10891778) and phospho-tPE motif (T*PE, #3004; RRID:AB_10890649)-of phospho-MAPK (2325), phospho-CDK (2324), phospho-PLK (5243) and phospho-tPE (C3004) motif-recognizing antibodies immobilized onto protein A/G beads. Immunoprecipitated peptides were analyzed using an LTQ-Orbitrap-Velos. Sequences were assigned to the MS/MS spectra and evaluated using SEQUEST 3G and SORCERER 2 (Sage-N Research v4.0, Milpitas). Quantitative data was evaluated and clustered in Spotfire Decision Site (www.spotfire.tibco.com) and normalized using quartile normalization. Functional annotation and pathway analysis used DAVID (https://david.ncifcrf.gov/). […]
Phospho-proteome analyses
Adherent COLO205 cells were washed with PBS and cells lysed using urea lysis buffer (9 M Urea, 20 mM HEPES, pH 8.0, 1 mM beta-glycerophosphate, 1 mM sodium vanadate, 2.5 mM sodium pyrophosphate) and stored at -80 °C prior to analysis. The supernatants were reduced with 100 mM DTT for 30 minutes at 55 °C, followed by alkylation with 50 mM iodoacetimide for 15 minutes at ambient temperature in the dark.
The samples were diluted in 20 mM HEPES, pH 8.0 and digested overnight with 10 ug/mL trypsin-tosylphenylalanyl chloromethyl ketone in 1 mM HCl. Digested peptides were acidified with 1% formic acid and then desalted over 360-mg SEP PAK C18 columns (Waters, UK). Peptides were eluted with 40% acetonitrile in 0.125% formic acid, dried under a vacuum and the lyophilised peptides used for immunoprecipitation.
A pool of motif antibodies from Cell Signaling Technologies (US) comprising: phospho-MAPK substrate (PXS*P or S*PXR/K, #2325, RRID:AB_331820), phospho-CDKs substrate ((K/H)S*P, #2324; RRID:AB_2244779), phospho-PLK binding motif (ST*P, […]
RRID:AB_10890649), were immobilised onto protein A/G beads overnight at 4 °C. The lyophilised peptides were resuspended in MOPS buffer (50 mM MOPS, pH 7.2, 10 mM KH2PO4, 50 mM NaCl) and centrifuged for 5 mins at 13,500 rpm in an Eppendorf benchtop microcentrifuge. The supernatants were incubated with the motif-bound beads for 2.5 hours at 4 °C . The beads were harvested by centrifugation at 4000 rpm in an Eppendorf benchtop microcentrifuge for 5 mins, washed with MOPS buffer twice and washed again 5 times with deionised water. The peptides were eluted off the beads using 0.125% formic acid, were desalted and dried under a vacuum. The lyophilised immunoprecipitated peptides were resuspended in 0.125% formic acid and separated on a capillary column packed with Magic C18 AQ reversed-phase resin.
Peptides were eluted using a 72-minute linear gradient of acetonitrile in 0.125% formic acid delivered at 280nL/min. Samples were analysed using an LTQ-Orbitrap-Velos.
MS Parameter Settings were: MS Run Time 96 min, MS1 Scan Range (300.0 – 1500.00), Top 20 MS/MS (Min Signal 500, Isolation Width 2.0, Normalized Coll.
Charge State Rejection Enabled, Charge State 1+ Rejected, Dynamic Exclusion Enabled, Repeat Count 1, Repeat Duration 35.0, Exclusion List Size 500, Exclusion Duration 40.0, Exclusion Mass Width Relative to Mass, Exclusion Mass Width 10ppm). […]

[1] = MCM4 peptide 69 - fsSppqmhssaipldfdvSspltygtpssr - 98
[2] = MCM4 peptide 86 - vsSpltygtpssr - 98
[3] = MDC1 peptide 1645 - SSvkTpkpvepaaSdlepftptdqsvTpeaiaqggqsk - 1682
[4] = MDC1 peptide 1649 - tpkpvepaasdlepfTptdqsvTpeaiaqggqsk - 1682
[5] = MED13 peptide 551 - TpStpqsqhfyqmpTpdplvpskpmedr - 578
[6] = MED13 peptide 551 - tpstpqSqhfyqmpTpdplvpskpmedr - 578
[7] = MED14 peptide 1106 - agnwpgSpqvsgpSpaar - 1123
[8] = MED26 peptide 295 - gSvpSpSprpqaldatqvpSplplaqpsTppvr - 328
[9] = MED26 peptide 295 - gsvpSpsprpqaldatqvpSplplaqpStppvrr - 328
[10] = MED26 peptide 295 - gsvpspsprpqaldatqvpSplplaqpStppvrr -328
[11] = MED26 peptide 295 - gsvpspsprpqaldatqvpSplplaqpsTppvr - 328
[12] = MLLT6 peptide 446 - palsatpvpadeTpetglkek - 466
[13] = NDRG3 peptide 327 - srthstSSSlgsgeSpfsr - 345
[14] = NEDD4L peptide 549 - avkdTlSnpqSpqpSpYnSpkpqhk - 593
[15] = NOP2 peptide 173 - eaaagiqwSeeeTedeeeekevTpesgppk - 202
[16] = NOSIP peptide 158 - vlpsfwipslTpeak - 172
[17] = NRIP1 peptide 537 - tsviespstnrtTpvSTpplltssk - 561
[18] = PBK peptide 18 - ksvlcstpTinipaSpfmqk - 37
[19] = PBK peptide 19 - svlcStptinipaSpfmqk - 37
[20] = PBK peptide 19 - svlcsTpTinipaspfmqk - 37
[21] = PDE12 peptide 200 - eakpgaaepevgvpsslspSSpSsswtetdveer - 233
[22] = PLEC peptide 4274/4384 - SSsvgsSssypiSpavsr - 4291/4401
[23] = PLEKHA6 peptide 453 - shsvprspSqgsysr - 467
[24] = PPP1R18 peptide 192 - wrlSpgeTper - 202
[25] = PRC1 peptide 487/447 - klntttmsnatanssirpifggtvyhSpvsr - 517/477
[26] = RACGAP1 peptide 572 - vsllgpvTTpehqllkTpSSSSlsqr - 597
[27] = RB1 peptide 788 - spykfpsSplripggniYisplkSpykiseglptptk - 824
[28] = RB1 peptide 792 - fpSSplripggniyiSplkSpYkiseglptpTk - 824
[29] = SEMA6A peptide 745 - adqhhldltalpTpestptlqqk - 767
[30] = SH3RF1 peptide 682 - ivtvlpglpTSpdsassacgnssatkpdkdsk - 713
[31] = SPEN peptide 188 - SrSpnrfdahdpr - 200
[32] = STAT1 peptide 716 - lqttdnllpmsSpeefdevsr - 736
[33] = TACC2 peptide 8/2304 - mkkTpekldntpaSpprSpaepndipiak - 36/2332
[34] = TANC2 peptide 1556 - sqSgspvryqqetsvsqlpgrpksplsSk - 1583
[35] = TASOR peptide 969 - qrSSdYqfpSSpftdtlk - 986
[36] = TASOR peptide 971- ssdyqfpSspftdtlk - 986
[37] = TASOR peptide 971 - ssdyqfpsSpftdtlk - 986
[38] = TBC1D10B peptide 686 - asagpapgpvvtaeglhpslpSptgnsTplgssk - 718
[39] = TBC1D23 peptide 505- visfientsTpvdr - 518
[40] = TFEB peptide 406 - edegppgypeplapghgSpfpslsk - 430
[41] = TGS1 peptide 290 - vdlvsfpsSpimvdndssgtsdkdhseildgisnik - 325
[42] = TLE3 peptide 282 - daptspasvassssTpssk - 300
[43] = TMPO peptide 151 - eqgteSrssTplptisssaentr - 173
[44] = TNRC18 peptide 1230 - vdSpgrTepcTaaldlgvqlTpeTlveak -1258
[45] = TUT1 peptide 273 - apespSldsalaSpldpqa - 293l
[46] = UBR5 peptide 634 - rsTpapkeeekvneeqwslr -653
[47] = WAC peptide 455 - iStpqtntvpikplisTppvsSqpk - 479
[48] = ZC3H13 peptide 1206 - lrSpSndsahr - 1216
[49] = ZMYM4 peptide 1085 - dqgstysgdleseavStphsweeelnhyalk -1115
[50] = ZMYND8 peptide 278/423 - rislsdmprSpmstnssvhtgsdveqdaekk - 307/452
[51] = ZNF687 peptide 123 - mqngfgSpepslpgtphSpappSggtwk - 150

## Cn1cc(-c2ccc(-c3cncc(Cl)c3N3CCC4(CCNC4=O)CC3)cc2)cn1 [CCT251545]
MCM4 peptide 69 - fSsppqmhssaipldfdvSsplTygtpssr - 98
  MEAN MS SIGNAL CMPD 1 6 H: 71644
[1]
  CMPD 1/DMSO: 0.313
  MEAN MS SIGNAL CMPD 1 6 H: 16633
[2]
  CMPD 1/DMSO: 0.545
  MEAN MS SIGNAL CMPD 1 6 H: 23881
[3]
  CMPD 1/DMSO: 0.574
  MEAN MS SIGNAL CMPD 1 6 H: 46837
[4]
  CMPD 1/DMSO: 0.539
  MEAN MS SIGNAL CMPD 1 6 H: 44678
[5]
  CMPD 1/DMSO: 0.359
  MEAN MS SIGNAL CMPD 1 6 H: 9156
[6]
  CMPD 1/DMSO: 0.429
  MEAN MS SIGNAL CMPD 1 6 H: 13284
[7]
  CMPD 1/DMSO: 0.142
  MEAN MS SIGNAL CMPD 1 6 H: 17584
[8]
  CMPD 1/DMSO: 0.215
  MEAN MS SIGNAL CMPD 1 6 H: 56284
[9]
  CMPD 1/DMSO: 0.344
  MEAN MS SIGNAL CMPD 1 6 H: 14569
[10]
  CMPD 1/DMSO: 0.404
  MEAN MS SIGNAL CMPD 1 6 H: 11273
[11]
  CMPD 1/DMSO: 0.324
  MEAN MS SIGNAL CMPD 1 6 H: 51395
[12]
  CMPD 1/DMSO: 0.499
  MEAN MS SIGNAL CMPD 1 6 H: 13974
[13]
  CMPD 1/DMSO: 0.635
  MEAN MS SIGNAL CMPD 1 6 H: 12713
[14]
  CMPD 1/DMSO: 2.036
  MEAN MS SIGNAL CMPD 1 6 H: 126084
[15]
  CMPD 1/DMSO: 0.618
  MEAN MS SIGNAL CMPD 1 6 H: 97741
[16]
  CMPD 1/DMSO: 0.562
  MEAN MS SIGNAL CMPD 1 6 H: 425932
[17]
  CMPD 1/DMSO: 1.857
  MEAN MS SIGNAL CMPD 1 6 H: 157739
[18]
  CMPD 1/DMSO: 0.492
  MEAN MS SIGNAL CMPD 1 6 H: 411168
[19]
  CMPD 1/DMSO: 0.553
  MEAN MS SIGNAL CMPD 1 6 H: 167495
[20]
  CMPD 1/DMSO: 0.535
  MEAN MS SIGNAL CMPD 1 6 H: 63854
[21]
  CMPD 1/DMSO: 0.255
  MEAN MS SIGNAL CMPD 1 6 H: 32966
[22]
  CMPD 1/DMSO: 0.605
  MEAN MS SIGNAL CMPD 1 6 H: 787072
[23]
  CMPD 1/DMSO: 1.818
  MEAN MS SIGNAL CMPD 1 6 H: 361701
[24]
  CMPD 1/DMSO: 0.562
  MEAN MS SIGNAL CMPD 1 6 H: 109529
[25]
  CMPD 1/DMSO: 0.592
  MEAN MS SIGNAL CMPD 1 6 H: 508312
[26]
  CMPD 1/DMSO: 0.557
  MEAN MS SIGNAL CMPD 1 6 H: 38518
[27]
  CMPD 1/DMSO: 1.786
  MEAN MS SIGNAL CMPD 1 6 H: 21423
[28]
  CMPD 1/DMSO: 1.780
  MEAN MS SIGNAL CMPD 1 6 H: 52675
[29]
  CMPD 1/DMSO: 2.360
  MEAN MS SIGNAL CMPD 1 6 H: 62365
[30]
  CMPD 1/DMSO: 0.610
  MEAN MS SIGNAL CMPD 1 6 H: 121720
[31]
  CMPD 1/DMSO: 2.092
  MEAN MS SIGNAL CMPD 1 6 H: 88908
[32]
  CMPD 1/DMSO: 0.357
  MEAN MS SIGNAL CMPD 1 6 H: 223699
[33]
  CMPD 1/DMSO: 0.521
  MEAN MS SIGNAL CMPD 1 6 H: 16068
[34]
  CMPD 1/DMSO: 3.615
  MEAN MS SIGNAL CMPD 1 6 H: 175022
[35]
  CMPD 1/DMSO: 0.437
  MEAN MS SIGNAL CMPD 1 6 H: 47745
[36]
  CMPD 1/DMSO: 0.316
  MEAN MS SIGNAL CMPD 1 6 H: 116521
[37]
  CMPD 1/DMSO: 0.406
  MEAN MS SIGNAL CMPD 1 6 H: 489288
[38]
  CMPD 1/DMSO: 0.515
  MEAN MS SIGNAL CMPD 1 6 H: 63051
[39]
  CMPD 1/DMSO: 0.544
  MEAN MS SIGNAL CMPD 1 6 H: 230940
[40]
  CMPD 1/DMSO: 0.596
  MEAN MS SIGNAL CMPD 1 6 H: 1352019
[41]
  CMPD 1/DMSO: 0.563
  MEAN MS SIGNAL CMPD 1 6 H: 156101
[42]
  CMPD 1/DMSO: 2.152
  MEAN MS SIGNAL CMPD 1 6 H: 35775
[43]
  CMPD 1/DMSO: 2.220
  MEAN MS SIGNAL CMPD 1 6 H: 19216
[44]
  CMPD 1/DMSO: 0.311
  MEAN MS SIGNAL CMPD 1 6 H: 69822
[45]
  CMPD 1/DMSO: 2.097
  MEAN MS SIGNAL CMPD 1 6 H: 41046
[46]
  CMPD 1/DMSO: 0.456
  MEAN MS SIGNAL CMPD 1 6 H: 139720
[47]
  CMPD 1/DMSO: 0.617
  MEAN MS SIGNAL CMPD 1 6 H: 154581
[48]
  CMPD 1/DMSO: 1.804
  MEAN MS SIGNAL CMPD 1 6 H: 405976
[49]
  CMPD 1/DMSO: 0.475
  MEAN MS SIGNAL CMPD 1 6 H: 46592
[50]
  CMPD 1/DMSO: 0.617
  MEAN MS SIGNAL CMPD 1 6 H: 23551
[51]
  CMPD 1/DMSO: 0.458
  MEAN MS SIGNAL CMPD 1 6 H: 22069
